Experimental data: US7875604B2, “Compounds that inhibit HIV particle formation” (University of Virginia Patent Foundation, priority 2004, dated 2011)
Where two headings read alike, the source gives them in different places.

Experiments:
Format in all cases: cell-based
[1] = tested on: HeLa; experiment: HIV-1 Rev assay toxicity/non-specificity readout (Firefly Luciferase); settings: 50% inhibition of Firefly Luciferase (toxicity/non-specificity), 24 hours; read-out: TC50 (the source's name)
Procedure: The eight compounds listed in Table 1 were also tested in an assay that measured HIV-1 Rev function. The HIV-1 Rev assay is based upon the use of a reporter for detecting whether drug candidates are capable of inhibiting the function of the viral Rev protein. The reporter used for these assays is the Renilla Luciferase protein, which is an enzyme that produces detectable light when mixed with certain chemicals. For this assay, a cell line has been developed in which the production of the reporter by the cells requires the function of HIV-1 Rev. Therefore, if a drug candidate inhibits the function of Rev, it decreases the amount of the reporter produced by the cells. By using Renilla Luciferase as the reporter, the inhibition of Rev is easily detected as a decrease in the amount of light produced by the cells when mixed with the appropriate chemicals. Furthermore, the cell line for this assay has been engineered to use a second similar reporter (Firefly Luciferase) that detects whether drug candidates are toxic.
(§1) Compounds were tested in the Rev assay using the maximum high-test concentration possible based on the supplied stocks as shown in Table 3. Compounds were prepared at a 2× high-test concentration by combining drug stock with tissue culture media at a ratio of 5 μL of drug to 995 μL of media. This 2× high-test sample was subsequently serially diluted in tissue culture media using 1/2 log dilutions. This series of 2× concentrated drug was subsequently diluted 1:1 by combining with an equal volume of cells in media in the 96-well plates used for the assay. Representative data for two of the compounds is also depicted in FIG. 5.
Leptomycin B is a control compound known to inhibit Rev function.

[2] = tested on: fresh human PBMCs; experiment: MTS staining for PBMC viability to measure cytotoxicity
Procedure: For the standard PBMC assay, PHA-P stimulated cells from at least two normal donors were pooled (mixed together), diluted in fresh medium to a final concentration of 1×10^6 cells/mL, and plated in the interior wells of a 96 well round bottom microplate at 50 μL/well (5×10^4 cells/well) in a standard format developed by the Infectious Disease Research department of Southern Research Institute. Pooling (mixing) of mononuclear cells from more than one donor is used to minimize the variability observed between individual donors, which results from quantitative and qualitative differences in HIV infection and overall response to the PHA and IL-2 of primary lymphocyte populations. Each plate contains virus/cell control wells (cells plus virus), experimental wells (drug plus cells plus virus) and compound control wells (drug plus media without cells, necessary for MTS monitoring of cytotoxicity). Since HIV-1 is not cytopathic to PBMCs, this allows the use of the same assay plate for both antiviral activity and cytotoxicity measurements. Test drug dilutions were prepared at a 2× concentration in microtiter tubes and 100 μL of each concentration was placed in appropriate wells using the standard format. 50 μL of a predetermined dilution of virus stock was placed in each test well (final MOI≅0.1). The PBMC cultures were maintained for seven days following infection at 37° C., 5% CO2. After this period, cell-free supernatant samples were collected for analysis of reverse transcriptase activity as a measure of virus release. Following removal of supernatant samples, compound cytotoxicity was measured by addition of MTS to the plates for determination of cell viability. Wells were also examined microscopically and any abnormalities were noted.
At assay termination, assay plates were stained with the soluble tetrazolium-based dye MTS (CellTiter 96 Reagent, Promega) to determine cell viability and quantify compound toxicity. The mitochondrial enzymes of metabolically active cells metabolize MTS to yield a soluble formazan product. This allows the rapid quantitative analysis of cell viability and compound cytotoxicity. […] At termination of the assay, 20 μL of MTS reagent was added per well. The microtiter plates were then incubated 4-6 hrs at 37° C. The incubation intervals were chosen based on empirically determined times for optimal dye reduction. Adhesive plate sealers were used in place of the lids, the sealed plate was inverted several times to mix the soluble formazan product and the plate was read spectrophotometrically at 490/650 nm with a Molecular Devices Vmax or SpectraMaxPlus plate reader.
as §1, with “PBMC” for “Rev”, “which are listed” for “as shown”, “table” for “Table”, “assay.” for “assay. Representative data for two of the compounds is also depicted in FIG. 5.”

[3] = tested on: U1 cells latently infected with HIV-1; experiment: U1 latency activation assay (TNF-α induced, supernatant reverse transcriptase); settings: for TI (TC50/IC50): Table 6
Procedure: U1 cells were obtained from the AIDS Research and Reference Reagent Program and maintained under standard culture conditions in RPMI 1640 supplemented with 10% fetal bovine serum (heat inactivated), 2 mM L-glutamine, 100 U/mL penicillin and 100 μg/mL streptomycin. U1 cells are derived from the histocytic leukemia cell line U937, and contain an integrated copy of a cytokine and/or phorbol inducible provirus (HIV-1IIIB). Cultures were maintained in such a way as to ensure exponential growth of the populations. Addition of TNF-α to the cell culture induces HIV-1, so that inhibition of virus production indicates an inhibition of a post-integration function of the HIV-1 life cycle. This is where an inhibitor of Rev function would be expected to act. […]
At the time of the assay, cells were collected by centrifugation and counted by hemacytometer. If cell viability by Trypan Blue dye exclusion was less than 70% the assay was terminated. The cells were adjusted to 5×10^4 cells/mL and 100 μL placed in 96 well plates with 100 μL media containing a final concentration of 5 ng/mL TNF-α and the test compound. Cultures were incubated for 3 days and supernatants harvested. Compound toxicity was determined by MTS dye reduction. Virus expression was measured by supernatant reverse transcriptase activity.
Reverse transcriptase was assayed to measure virus particle release as described above for the PBMC assay.
as §1, with “U1 latency” for “Rev”, “which are listed” for “as shown”, “table” for “Table”, “3. Compounds were tested using the maximum high-test concentration possible based on the supplied stocks.” for “3.”, “Temacrazine a known inhibitor of HIV transcription was used as a control compound that is active in the post-integration part” for “Representative data for two”, “HIV life cycle.” for “compounds is also depicted in FIG. 5.”
Compounds were tested using the maximum high-test concentration possible based on the supplied stocks. Compounds were prepared at a 2× high-test concentration by combining drug stock with tissue culture media at a ratio of 5 μL of drug to 995 μL of media. This 2× high-test (HT) sample was subsequently serially diluted in tissue culture media using 1/2 log dilutions. This series of 2× concentrated drug was subsequently diluted 1:1 by combining with an equal volume of cells in media in the 96-well plates used for the assay.

[4] = Human immunodeficiency virus 1, 72 h, U1 cell assay, Table 6, 5 ng/mL TNF-α, 3 days, RT activity

Compound	TI (TC50/IC50) ([3]; U1 cell assay)	IC50 [3, 4] [µM]	further results
2-chloro-N-(4-methylphenyl)-4-(trifluoromethyl)-1,3-thazole-5-carboxamide [Compound 91161]	1.35		CC50 [1]: > 39.5 µM; CC50 ([2]; PBMC plates with HIV-1 BR/93/021, MTS, read-out: TC50 (the source's name)): 23.3 µM; CC50 ([2]; PBMC plates with HIV-1 NL4-3, MTS, read-out: TC50 (the source's name)): 13.5 µM; IC50 ([3]; U1 cell assay, Table 6, 5 ng/mL TNF-α, 3 days, RT activity): 16.5 µM
COc1ccc2cc3c(N)n[nH]c3nc2c1 [Compound 89246, 7-methoxy-1H-pyrazolo[3,4-b]quinolin-3-ylamine]	102	0.24	IC50 ([3]; Human immunodeficiency virus 1, U1 cell assay, analogs, Table 8): < 0.172 µM
CCc1c(C)nc2sc(C(N)=O)c(N)c2c1C [Compound 103833, 3-amino-5-ethyl-4,6-dimethylthieno[2,3-b]pyridine-2-carboxamide]	>94	0.4	CC50 ([2]; human, 7 days): > 37.6 µM
COc1ccc2nc(C(F)(F)F)c(C#N)c(N)c2c1 [Compound 104366, 4-amino-6-methoxy-2-(trifluoromethyl)-3-quinolinecarbonitrile]	>49.6	< 0.25	
CS(=O)(=O)c1ncc(-c2ccc(Br)cc2)cn1 [Compound 107129, -(4-bromophenyl)-2-(methylsulfonyl)pyrimidine]		> 53	
COc1cccc(NC(=O)c2cc(Cl)nnc2Cl)c1 [Compound 107740, 3,6-dichloro-N-(3-methoxyphenyl)-4-pyridazinecarboxamide]	>26.6	1.1	
Fc1ccc(Nc2ncnc3ccccc23)cc1Cl [Compound 109020, N-(3-chloro-4-fluorophenyl)-N-(4-quinazolinyl)amine]	>151	0.27	CC50 ([2]; human, 7 days): > 40.8 µM
